Results taken from patent publication US20140057895A1, “INDAZOLE- AND PYRROLOPYRIDINE-DERIVATIVE AND PHARMACEUTICAL USE THEREOF” (priority 2011, published 2014).
pIC50: −log10 of the molar value. Structures can show the parent of a compound that is named as a salt.

Molecular target: T1, 5-HT4 receptor (Cavia porcellus, UniProt O70528)
T1 construct: striatum was isolated which was cryopreserved at −80° C. until use; from tissue; host or cells: guinea pig (Slc-Hartley) striatum membranes
Experiment: Test Example 3: Guinea pig 5-HT4 receptor binding assay, [3H]-GR113808, striatum membranes (Table 98)
Settings: Guinea pig 5-HT4 receptor binding assay, [3H]-GR113808, striatum membranes; mean value of each group; read-out: IC50
Protocol: The guinea pig 5-HT4 receptor binding assay and preparations of receptor membrane preparations herein were carried out according to a method of Grossman et al. [see, British J. Pharmacol., (1993) 109, 618].
Slc-Hartley guinea pigs (body weight 300 g to 400 g) were decapitated to remove brain rapidly, and striatum was isolated which was cryopreserved at −80° C. until use. To the obtained tissues were added fifteen fold of Hepes buffer (50 mM, pH 7.4, 4° C.), and the mixture was homogenized by Teflon (trademark) homogenizer and centrifuged at 48,000×g (4° C.) for 15 minutes. To the resulting precipitate was added Hepes buffer (1 ml) to 30 mg by wet weight of tissues, and the mixture was suspended to give receptor membrane preparations.
To an assay tube were added 0.1 nM [^3H]-GR113808 {chemical name: [1-[2-(methylsulfonylamino) ethyl]-4-piperidinyl]methyl 1-methylindole-3-carboxylate}, receptor membrane preparations, and Hepes buffer (50 mM, pH 7.4, 4° C., 1 ml) containing test compounds or 30 μM serotonin; and the mixture was incubated at 37° C. for 30 minutes. On quenching the reaction, the mixture was rapidly filtered on whatman GF/B filter, which was presoaked in 0.1% polyethyleneimine for 1 hour, by using Brandel cell Harvester, and washed with ice-cooled 50 mM Tris-HCl (pH 7.7, 4 ml) three times. To the filter after filtration was added a liquid scintillator (Ecoscint), and then a radioactivity was determined by a liquid scintillation counter.
50% Inhibition concentrations (IC50) were determined from inhibition rates of test compounds to specific bindings which were obtained by subtracting nonspecific bindings from total binding amounts of [^3H]-GR113808. […]

T1 sequence (O70528 whole entry): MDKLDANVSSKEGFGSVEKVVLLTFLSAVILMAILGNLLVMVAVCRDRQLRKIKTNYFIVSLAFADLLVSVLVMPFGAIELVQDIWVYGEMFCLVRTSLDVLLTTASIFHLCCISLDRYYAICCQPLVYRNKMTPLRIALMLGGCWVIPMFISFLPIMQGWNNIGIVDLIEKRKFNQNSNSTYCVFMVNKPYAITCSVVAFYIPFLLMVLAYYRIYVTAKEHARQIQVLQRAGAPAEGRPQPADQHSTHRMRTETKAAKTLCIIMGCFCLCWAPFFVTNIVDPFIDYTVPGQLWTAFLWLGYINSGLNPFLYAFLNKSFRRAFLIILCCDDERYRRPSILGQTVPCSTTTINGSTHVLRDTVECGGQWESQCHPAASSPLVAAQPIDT

| Molecule | pIC50 |
| --- | --- |
| CC(=O)N1CCC(N2CCC(c3nc(-n4nc(C(C)C)c5ccc(C)cc54)no3)CC2)CC1 [Example 462, 1-(4-{3-[6-methyl-3-(propan-2-yl)-1H-indazol-1-yl]-1,2,4-oxadiazol-5-yl}-1,4′-bipiperidin-1′-yl}ethanone trifluoroacetate] | 6.96 |
| COc1cccc2c(C(C)C)nn(-c3noc(C4CCN(C5CCOCC5)CC4)n3)c12 [Example 441, 7-methoxy-3-(propan-2-yl)-1-{5-[1-(tetrahydro-2H-pyran-4-yl)piperidin-4-yl]-1,2,4-oxadiazol-3-yl}-1H-indazole] | 7.11 |
| CC(=O)N1CCC(N2CCC(c3nc(-n4nc(C(C)C)c5ccc(Cl)cc54)no3)CC2)CC1 [Example 412, 1-(4-{3-[6-chloro-3-(propan-2-yl)-1H-indazol-1-yl]-1,2,4-oxadiazol-5-yl}-1,4′-bipiperidin-1′-yl)ethanone] | 6.85 |
| CC(C)c1nn(-c2noc(C3CCN(C4CCC4)CC3)n2)c2cc(Cl)ccc12 [Example 431, 6-chloro-1-[5-(1-cyclobutylpiperidin-4-yl)-1,2,4-oxadiazol-3-yl]-3-(propan-2-yl)-1H-indazole] | 6.89 |
| CC(=O)N1CCC(N2CCC(c3nc(-n4nc(C(C)C)c5ccc(O)c(F)c54)no3)CC2)CC1 [Example 554, 1-(4-{3-[7-fluoro-6-hydroxy-3-(propan-2-yl)-1H-indazol-1-yl]-1,2,4-oxadiazol-5-yl}-1,4′-bipiperidin-1′-yl)ethanone] | 6.72 |
| CCCCN1CCC(c2cnc(-n3nc(C(C)C)c4cccc(F)c43)[nH]2)CC1 [Example 562, 1-[5-(1-butylpiperidin-4-yl)-1H-imidazol-2-yl]-7-fluoro-3-(propan-2-yl)-1H-indazole] | 6.32 |
| CCCCN1CCC(c2cnc(-n3nc(C(C)C)c4cccc(F)c43)s2)CC1 [Example 563, 1-[5-(1-butylpiperidin-4-yl)-1,3-thiazol-2-yl]-7-fluoro-3-(propan-2-yl)-1H-indazole] | 6.65 |
| 5-methyl-3-(propan-2-yl)-1-{5-[1-(tetrahydro-2H-pyran-4-yl)piperidin-5-yl]-1,2,4-oxadiazol-3-yl}-1H-indazole [Example 428] | 6.61 |
| CC(=O)N1CCC(N2CCC(c3nc(-n4nc(C(C)C)c5c(Cl)cccc54)no3)CC2)CC1 [Example 407, 1-(4-{3-[4-chloro-3-(propan-2-yl)-1H-indazol-1-yl]-1,2,4-oxadiazol-5-yl}-1,4′-bipiperidin-1′-yl)ethanone] | 7.00 |
| COc1cccc2c(C(C)C)nn(-c3noc(C4CCN(C5CCC5)CC4)n3)c12 [Example 440, 1-[5-(1-cyclobutylpiperidin-4-yl)-1,2,4-oxadiazol-3-yl]-7-methoxy-3-(propan-2-yl)-1H-indazole] | 6.98 |
| CC(=O)N1CC(CN2CCC(c3nc(-n4nc(C(C)C)c5ccc(C)cc54)no3)CC2)C1 [Example 471, 1-{3-[(4-{3-[6-methyl-3-(propan-2-yl)-1H-indazol-1-yl]-1,2,4-oxadiazol-5-yl}piperidin-1-yl)methyl]azetidin-1-yl}ethanone trifluoroacetate] | 6.76 |
| CC(C)c1nn(-c2noc(C3CCN(C4CCN(C(=O)CO)CC4)CC3)n2)c2c(F)c(O)ccc12 [Example 552, 1-(4-{3-[7-fluoro-6-hydroxy-3-(propan-2-yl)-1H-indazol-1-yl]-1,2,4-oxadiazol-5-yl}-1,4′-bipiperidin-1′-yl)-2-hydroxyethanone] | 6.75 |
| COc1cccc2c(C(C)C)nn(-c3noc(C4CCN(C5CCN(C(C)=O)CC5)CC4)n3)c12 [Example 414, 1-(4-{3-[7-methoxy-3-(propan-2-yl)-1H-indazol-1-yl]-1,2,4-oxadiazol-5-yl}-1,4′-bipiperidin-1′-yl)ethanone] | 7.06 |

Stronger by pIC50, values ahead:

| pIC50 | Molecule |
| --- | --- |
| 7.74 | CC(C)c1nn(-c2noc(C3CCN(C4CC[S+]([O-])CC4)CC3)n2)c2c(F)cccc12 (stereo not drawn) [Example 443, 7-fluoro-1-{5-[1-(1-oxidotetrahydro-2H-thiopyran-4-yl)piperidin-4-yl]-1,2,4-oxadiazol-3-yl}-3-(propan-2-yl)-1H-indazole] |
| 7.57 | CC(C)c1nn(-c2noc(C3CCN(CCCOc4ccccc4)CC3)n2)c2c(F)cccc12 [Example 395, 7-fluoro-1-{5-[1-(3-phenoxypropyl)piperidin-4-yl]-1,2,4-oxadiazol-3-yl}-3-(propan-2-yl)-1H-indazole] |
| 7.45 | CC(=O)N1CCOC(CN2CCC(c3nc(-n4nc(C(C)C)c5cccc(F)c54)no3)CC2)C1 (stereo not drawn) [Example 483, 1-{2-[(4-{3-[7-fluoro-3-(propan-2-yl)-1H-indazol-1-yl]-1,2,4-oxadiazol-5-yl}piperidin-1-yl)methyl]morpholin-4-yl}ethanone] |
| 7.53 | CC(=O)N1CCC(N2CCC(c3nc(-n4nc(C(C)C)c5c(C)cccc54)no3)CC2)CC1 [Example 408, 1-(4-{3-[4-methyl-3-(propan-2-yl)-1H-indazol-1-yl]-1,2,4-oxadiazol-5-yl}-1,4′-bipiperidin-1′-yl)ethanone] |
| 7.55 | COC(=O)N1CCOC(CN2CCC(c3nc(-n4nc(C(C)C)c5cccc(F)c54)no3)CC2)C1 (stereo not drawn) [Example 484, methyl 2-[(4-{3-[7-fluoro-3-(propan-2-yl)-1H-indazol-1-yl]-1,2,4-oxadiazol-5-yl}piperidin-1-yl)methyl]morpholine-4-carboxylate] |
| > 7.70 | CC(=O)N1CCC(N2CCC(c3nc(-n4nc(C(C)C)c5cccc(F)c54)no3)C2)CC1 (stereo not drawn) [Example 415, 1-[4-(3-{3-[7-fluoro-3-(propan-2-yl)-1H-indazol-1-yl]-1,2,4-oxadiazol-5-yl}pyrrolidin-1-yl)piperidin-1-yl]ethanone] |
| > 7.70 | COCC(=O)N1CCC(N2CCC(c3nc(-n4nc(C(C)C)c5ccc(F)c(F)c54)no3)CC2)CC1 [Example 465, 1-(4-{3-[6,7-difluoro-3-(propan-2-yl)-1H-indazol-1-yl]-1,2,4-oxadiazol-5-yl}-1,4′-bipiperidin-1′-yl)-2-methoxyethanone trifluoroacetate] |
| > 7.70 | CC(=O)N1CCC(N2CC[C@H](Cc3nc(-n4nc(C(C)C)c5cccc(F)c54)no3)C2)CC1 [Example 495, 1-{4-[(3R)-3-({3-[7-fluoro-3-(propan-2-yl)-1H-indazol-1-yl]-1,2,4-oxadiazol-5-yl}methyl)pyrrolidin-1-yl]piperidin-1-yl}ethanone] |
| > 7.70 | CCc1nn(-c2noc(C3CCN(C4CCC4)CC3)n2)c2c(F)c(F)ccc12 [Example 446, 1-[5-(1-cyclobutylpiperidin-4-yl)-1,.2,4-oxadiazol-3-yl]-3-ethyl-6,7-difluoro-1H-indazole-trifluoroacetate] |
| > 7.70 | CC(C)c1nn(-c2noc(C3CCN(C4CCCC4)CC3)n2)c2c(F)c(F)ccc12 [Example 452, 1-[5-(1-cyclopentylpiperidin-4-yl)-1,2,4-oxadiazol-3-yl]-6,7-difluoro-3-(propan-2-yl)-1H-indazole trifluoroacetate] |
| 7.19 | Cc1ccc2c(C(C)C)nn(-c3noc(C4CCN(C5CCC5)CC4)n3)c2c1 [Example 433, 1-[5-(1-cyclobutylpiperidin-4-yl)-1,2,4-oxadiazol-3-yl]-6-methyl-3-(propan-2-yl)-1H-indazole] |
| > 7.70 | CC(C)c1nn(-c2noc(C3CCN(CCC(=O)Nc4ccccc4)CC3)n2)c2c(F)cccc12 [Example 398, 3-(4-{3-[7-fluoro-3-(propan-2-yl)-1H-indazol-1-yl]-1,2,4-oxadiazol-5-yl}piperidin-1-yl)-N-phenylpropanamide] |
| > 7.70 | CCc1nn(-c2noc(C3CCN(CC4CCN(C(=O)OC)CC4)CC3)n2)c2c(F)c(F)ccc12 [Example 476, methyl 4-({4-[3-(3-ethyl-6,7-difluoro-1H-indazol-1-yl)-1,2,4-oxadiazol-5-yl]piperidin-1-yl}methyl)piperidin-1-carboxylate trifluoroacetate] |
| 7.26 | CC(C)c1nn(-c2noc(C3CCN(C4CCOCC4)CC3)n2)c2cccc(Cl)c12 [Example 422, 4-chloro-3-(propan-2-yl)-1-{5-[1-(tetrahydro-2H-pyran-4-yl)piperidin-4-yl]-1,2,4-oxadiazol-3-yl}-1H-indazole] |
